Measurements published in ChEMBL document CHEMBL1135136, “Carbonic anhydrase inhibitors. Preparation of potent sulfonamides inhibitors incorporating bile acid tails” (Bioorg Med Chem Lett, 2002).
Values joined by “and” are separate entries in the source; they are usually repeats but may differ in a detail not shown here. Equal entries are not always repeated.

Tests used:
Carbonic anhydrase 2 = Carbonic anhydrase 2 (Homo sapiens, UniProt P00918)
Description: Inhibitory activity against human recombinant carbonic anhydrase II (CA2)

Carbonic anhydrase 4 = target: T1, Carbonic anhydrase 4 (Bos taurus, UniProt Q95323)
T1 sequence (Q95323 whole entry): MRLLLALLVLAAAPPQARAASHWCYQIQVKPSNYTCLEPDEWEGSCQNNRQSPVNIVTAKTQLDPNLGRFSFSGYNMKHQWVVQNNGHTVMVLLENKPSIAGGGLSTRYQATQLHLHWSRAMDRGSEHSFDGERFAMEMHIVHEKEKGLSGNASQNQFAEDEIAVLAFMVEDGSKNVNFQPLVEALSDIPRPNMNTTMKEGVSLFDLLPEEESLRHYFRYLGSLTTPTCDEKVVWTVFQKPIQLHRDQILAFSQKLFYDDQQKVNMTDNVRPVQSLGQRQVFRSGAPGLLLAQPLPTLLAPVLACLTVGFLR
Description: Inhibitory activity against bovine carbonic anhydrase IV (CA4), obtained from bovine lung microsomes

Carbonic anhydrase 1 = Carbonic anhydrase 1 (Homo sapiens, UniProt P00915)
Sequence of Carbonic anhydrase 1 (P00915 whole entry): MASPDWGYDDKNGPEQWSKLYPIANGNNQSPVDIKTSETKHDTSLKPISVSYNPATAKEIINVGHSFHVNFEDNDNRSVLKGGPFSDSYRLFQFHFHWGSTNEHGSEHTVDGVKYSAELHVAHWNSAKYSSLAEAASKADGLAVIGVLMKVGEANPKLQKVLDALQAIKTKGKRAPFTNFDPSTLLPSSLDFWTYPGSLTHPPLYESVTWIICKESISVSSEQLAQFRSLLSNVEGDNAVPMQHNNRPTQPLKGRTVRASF
Description: Inhibitory activity against human recombinant carbonic anhydrase I (CA1)

Oryctolagus cuniculus [1] = species on record: Oryctolagus cuniculus
Description: (§1) Tested for level of sulfonamide in red blood cells of albino rabbits at 120 min post-administration of 50 mg/kg sulfonamides

Oryctolagus cuniculus [2] = species on record: Oryctolagus cuniculus; remark: listed apart in the source
Description: as §1

Oryctolagus cuniculus [3] = species on record: Oryctolagus cuniculus; remark: listed apart in the source
Description: Tested for level of sulfonamide in red blood cells of albino rabbits at 60 min post-administration of 50 mg/kg sulfonamides

Row | Ki (Carbonic anhydrase 2) [nM] | Ki (Carbonic anhydrase 4) [nM] | Ki (Carbonic anhydrase 1) [nM] | SMILES | Level (Oryctolagus cuniculus [1]) [µM] | Level (Oryctolagus cuniculus [2]) [µM] | Level (Oryctolagus cuniculus [3])
1 | 8 | 21 | 205 | C[C@H](CCC(=O)/N=c1\sc(S(N)(=O)=O)nn1C)[C@H]1CC[C@H]2[C@@H]3CC[C@@H]4C[C@H](O)CC[C@]4(C)[C@H]3CC[C@]12C |  |  | 
2 | 31 | 50 | 365 | C[C@H](CCC(=O)Nc1ccc(S(N)(=O)=O)cc1Br)[C@H]1CC[C@H]2[C@@H]3CC[C@@H]4C[C@H](O)CC[C@]4(C)[C@H]3C[C@H](O)[C@]12C |  |  | 
3 | 26 | 40 | 600 | C[C@H](CCC(=O)NCc1ccc(S(N)(=O)=O)cc1)[C@H]1CC[C@H]2[C@@H]3C(=O)C[C@@H]4CC(=O)CC[C@]4(C)[C@H]3CC(=O)[C@]12C |  |  | 
4 | 20 | 100 | 285 | C[C@H](CCC(=O)Nc1c(S(N)(=O)=O)cc(S(N)(=O)=O)c(Cl)c1Cl)[C@H]1CC[C@H]2[C@@H]3CC[C@@H]4C[C@H](O)CC[C@]4(C)[C@H]3C[C@H](O)[C@]12C |  |  | 
5 | 3 | 10 | 39 | C[C@H](CCC(=O)OCCOc1ccc2nc(S(N)(=O)=O)sc2c1)[C@H]1CC[C@H]2[C@@H]3[C@H](O)C[C@@H]4C[C@H](O)CC[C@]4(C)[C@H]3C[C@H](O)[C@]12C |  |  | 
6 | 50 | 128 | 1050 | C[C@H](CCC(=O)Nc1ccc(S(N)(=O)=O)cc1F)[C@H]1CC[C@H]2[C@@H]3[C@H](O)C[C@@H]4C[C@H](O)CC[C@]4(C)[C@H]3CC[C@]12C |  |  | 
7 | 0.6 | 5 | 33 | C[C@H](CCC(=O)Oc1ccc2nc(S(N)(=O)=O)sc2c1)[C@H]1CC[C@H]2[C@@H]3C(=O)C[C@@H]4CC(=O)CC[C@]4(C)[C@H]3CC(=O)[C@]12C | 158 | 163 | 156 µM and 159 µM
8 | 50 | 205 | 420 | C[C@H](CCC(=O)Nc1nnc(S(N)(=O)=O)s1)[C@H]1CC[C@H]2[C@@H]3[C@H](O)C[C@@H]4C[C@H](O)CC[C@]4(C)[C@H]3C[C@H](O)[C@]12C |  |  | 
9 | 12 | 115 | 700 | C[C@H](CCC(=O)/N=c1/sc(S(N)(=O)=O)nn1C)[C@H]1CC[C@H]2[C@@H]3[C@H](O)C[C@@H]4C[C@H](O)CC[C@]4(C)[C@H]3C[C@H](O)[C@]12C |  |  | 
10 | 54 | 82 | 200 | C[C@H](CCC(=O)Nc1cc(Cl)c(S(N)(=O)=O)cc1S(N)(=O)=O)[C@H]1CC[C@H]2[C@@H]3CC[C@@H]4C[C@H](O)CC[C@]4(C)[C@H]3CC[C@]12C |  |  | 
11 | 275 | 1200 | 25500 | C[C@H](CCC(=O)Nc1ccccc1S(N)(=O)=O)[C@H]1CC[C@H]2[C@@H]3[C@H](O)C[C@@H]4C[C@H](O)CC[C@]4(C)[C@H]3C[C@H](O)[C@]12C |  |  | 
12 | 210 | 1250 | 21400 | C[C@H](CCC(=O)Nc1cccc(S(N)(=O)=O)c1)[C@H]1CC[C@H]2[C@@H]3[C@H](O)C[C@@H]4C[C@H](O)CC[C@]4(C)[C@H]3CC[C@]12C |  |  | 
13 | 78 | 300 | 885 | C[C@H](CCC(=O)OCCc1ccc(S(N)(=O)=O)cc1)[C@H]1CC[C@H]2[C@@H]3CC[C@@H]4C[C@H](O)CC[C@]4(C)[C@H]3C[C@H](O)[C@]12C |  |  | 
14 | 17 | 30 | 190 | C[C@H](CCC(=O)Nc1ccc(S(N)(=O)=O)cc1Cl)[C@H]1CC[C@H]2[C@@H]3[C@@H](O)C[C@@H]4C[C@H](O)CC[C@]4(C)[C@H]3CC[C@]12C |  |  | 
15 | 47 | 110 | 415 | C[C@H](CCC(=O)Nc1ccc(S(N)(=O)=O)cc1I)[C@H]1CC[C@H]2[C@@H]3CC[C@@H]4C[C@H](O)CC[C@]4(C)[C@H]3C[C@H](O)[C@]12C |  |  | 
16 | 80 | 233 | 1710 | C[C@H](CCC(=O)NCc1ccc(S(N)(=O)=O)cc1)[C@H]1CC[C@H]2[C@@H]3CC[C@@H]4C[C@H](O)CC[C@]4(C)[C@H]3C[C@H](O)[C@]12C |  |  | 
17 | 13 | 20 | 67 | C[C@H](CCC(=O)Nc1ccc(S(N)(=O)=O)cc1I)[C@H]1CC[C@H]2[C@@H]3[C@@H](O)C[C@@H]4C[C@H](O)CC[C@]4(C)[C@H]3CC[C@]12C |  |  | 
18 | 1.2 | 31 | 250 | C[C@H](CCC(=O)NCCC(=O)Nc1nnc(S(N)(=O)=O)s1)[C@H]1CC[C@H]2[C@@H]3[C@H](O)C[C@@H]4C[C@H](O)CC[C@]4(C)[C@H]3C[C@H](O)[C@]12C |  |  | 
19 | 120 | 254 | 3780 | C[C@H](CCC(=O)NCc1ccc(S(N)(=O)=O)cc1)[C@H]1CC[C@H]2[C@@H]3[C@H](O)C[C@@H]4C[C@H](O)CC[C@]4(C)[C@H]3C[C@H](O)[C@]12C |  |  | 
20 | 1.3 | 11 | 98 | C[C@H](CCC(=O)NCCC(=O)Nc1nnc(S(N)(=O)=O)s1)[C@H]1CC[C@H]2[C@@H]3[C@@H](O)C[C@@H]4C[C@H](O)CC[C@]4(C)[C@H]3CC[C@]12C |  |  | 
21 | 62 | 143 | 300 | C[C@H](CCC(=O)Nc1cc(Cl)c(S(N)(=O)=O)cc1S(N)(=O)=O)[C@H]1CC[C@H]2[C@@H]3[C@H](O)C[C@@H]4C[C@H](O)CC[C@]4(C)[C@H]3CC[C@]12C |  |  | 
22 | 21 | 95 | 343 | C[C@H](CCC(=O)Nc1c(S(N)(=O)=O)cc(S(N)(=O)=O)c(Cl)c1Cl)[C@H]1CC[C@H]2[C@@H]3[C@H](O)C[C@@H]4C[C@H](O)CC[C@]4(C)[C@H]3CC[C@]12C |  |  | 
23 | 15 | 28 | 210 | C[C@H](CCC(=O)Nc1ccc(S(N)(=O)=O)cc1F)[C@H]1CC[C@H]2[C@@H]3C(=O)C[C@@H]4CC(=O)CC[C@]4(C)[C@H]3CC(=O)[C@]12C |  |  | 
24 | 52 | 240 | 410 | C[C@H](CCC(=O)Nc1nnc(S(N)(=O)=O)s1)[C@H]1CC[C@H]2[C@@H]3[C@H](O)C[C@@H]4C[C@H](O)CC[C@]4(C)[C@H]3CC[C@]12C |  |  | 
25 | 1.1 | 7 | 22 | C[C@H](CCC(=O)NCCC(=O)Nc1nnc(S(N)(=O)=O)s1)[C@H]1CC[C@H]2[C@@H]3C(=O)C[C@@H]4CC(=O)CC[C@]4(C)[C@H]3CC(=O)[C@]12C |  |  | 
26 | 9 | 24 | 45 | C[C@H](CCC(=O)Nc1c(S(N)(=O)=O)cc(S(N)(=O)=O)c(Cl)c1Cl)[C@H]1CC[C@H]2[C@@H]3C(=O)C[C@@H]4CC(=O)CC[C@]4(C)[C@H]3CC(=O)[C@]12C |  |  | 
27 | 29 | 36 | 360 | C[C@H](CCC(=O)Nc1ccc(S(N)(=O)=O)cc1F)[C@H]1CC[C@H]2[C@@H]3CC[C@@H]4C[C@H](O)CC[C@]4(C)[C@H]3CC[C@]12C |  |  | 
28 | 77 | 151 | 890 | C[C@H](CCC(=O)Nc1ccc(S(N)(=O)=O)cc1Cl)[C@H]1CC[C@H]2[C@@H]3CC[C@@H]4C[C@H](O)CC[C@]4(C)[C@H]3C[C@H](O)[C@]12C |  |  | 
29 | 2.1 | 30 | 200 | C[C@H](CCC(=O)NCCC(=O)Nc1nnc(S(N)(=O)=O)s1)[C@H]1CC[C@H]2[C@@H]3CC[C@@H]4C[C@H](O)CC[C@]4(C)[C@H]3C[C@H](O)[C@]12C |  |  | 
30 | 186 | 420 | 20000 | C[C@H](CCC(=O)Nc1ccc(S(N)(=O)=O)cc1)[C@H]1CC[C@H]2[C@@H]3[C@H](O)C[C@@H]4C[C@H](O)CC[C@]4(C)[C@H]3CC[C@]12C |  |  | 

Row | SMILES | Ki (Carbonic anhydrase 2) [nM] | Ki (Carbonic anhydrase 4) [nM] | Ki (Carbonic anhydrase 1) [nM] | Level (Oryctolagus cuniculus [1]) [µM] | Level (Oryctolagus cuniculus [2]) [µM] | Level (Oryctolagus cuniculus [3])
31 | C[C@H](CCC(=O)Nc1nnc(S(N)(=O)=O)s1)[C@H]1CC[C@H]2[C@@H]3C(=O)C[C@@H]4CC(=O)CC[C@]4(C)[C@H]3CC(=O)[C@]12C | 0.5 | 9 | 41 | 151 | 159 | 155 µM and 162 µM
32 | C[C@H](CCC(=O)OCCc1ccc(S(N)(=O)=O)cc1)[C@H]1CC[C@H]2[C@@H]3[C@@H](O)C[C@@H]4C[C@H](O)CC[C@]4(C)[C@H]3CC[C@]12C | 58 | 160 | 350 |  |  | 
33 | C[C@H](CCC(=O)NCCc1ccc(S(N)(=O)=O)cc1)[C@H]1CC[C@H]2[C@@H]3[C@@H](O)C[C@@H]4C[C@H](O)CC[C@]4(C)[C@H]3CC[C@]12C | 14 | 34 | 295 |  |  | 
34 | C[C@H](CCC(=O)Nc1ccc(S(N)(=O)=O)cc1Cl)[C@H]1CC[C@H]2[C@@H]3C(=O)C[C@@H]4CC(=O)CC[C@]4(C)[C@H]3CC(=O)[C@]12C | 13 | 30 | 200 |  |  | 
35 | C[C@H](CCC(=O)NCCc1ccc(S(N)(=O)=O)cc1)[C@H]1CC[C@H]2[C@@H]3[C@H](O)C[C@@H]4C[C@H](O)CC[C@]4(C)[C@H]3CC[C@]12C | 86 | 235 | 3300 |  |  | 
36 | C[C@H](CCC(=O)Nc1cc(Cl)c(S(N)(=O)=O)cc1S(N)(=O)=O)[C@H]1CC[C@H]2[C@@H]3CC[C@@H]4C[C@H](O)CC[C@]4(C)[C@H]3C[C@H](O)[C@]12C | 55 | 121 | 225 |  |  | 
